Key:
hGPR17L [1] = target: T1, hGPR17L (Homo sapiens, UniProt Q13304); assay: Calcium mobilization assay; format: cell-based; settings: for antagonist activity at GPR17: data not shown
hGPR17L [2] = target: T1, hGPR17L; assay: cAMP signaling in GLUTag cells expressing hGPR17L; format: cell-based; settings: for attenuation of MDL-mediated inhibition of forskolin-stimulated cAMP: 10 μM compound, 100 nM MDL, 10 μM forskolin
hGPR17L [3] = target: T1, hGPR17L; assay: GLP-1 secretion assay in GLUTag cells expressing hGPR17L; format: cell-based; settings: 6.3 μM MDL; for attenuation of MDL-mediated inhibition of GLP-1 secretion: 10 μM compound, 10 μM forskolin and 10 μM IBMX
[4] = target: N-methyl-D-aspartate (NMDA) receptors, glycine binding site; settings: cited from earlier work
hGPR17L [5] = target: T1, hGPR17L; assay: cAMP accumulation HTRF assay
hP2RY1 = hP2RY1 (Homo sapiens, UniProt P47900); assay: Calcium mobilization, Neuro-2a cells transiently transfected with hP2RY1; format: cell-based; settings: 10 μM compound (300 μM MRS2179); 8 nM 2MeSADP
Chain of hP2RY1 (P47900 whole entry): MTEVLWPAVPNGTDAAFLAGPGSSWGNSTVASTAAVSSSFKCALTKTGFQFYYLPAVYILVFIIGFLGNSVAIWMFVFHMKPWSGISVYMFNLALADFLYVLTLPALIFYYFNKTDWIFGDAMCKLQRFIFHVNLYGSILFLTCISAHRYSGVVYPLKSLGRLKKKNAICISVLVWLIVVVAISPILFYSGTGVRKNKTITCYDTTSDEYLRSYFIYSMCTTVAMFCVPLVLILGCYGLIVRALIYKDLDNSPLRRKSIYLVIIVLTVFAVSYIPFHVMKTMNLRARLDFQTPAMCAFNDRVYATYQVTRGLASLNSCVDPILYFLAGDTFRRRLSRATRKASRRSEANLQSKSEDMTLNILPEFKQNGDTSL

hCysLTR1 = target: T2, hCysLTR1 (Homo sapiens, UniProt Q9Y271); assay: Calcium mobilization, Neuro-2a cells transiently transfected with hCysLTR1; format: cell-based; settings: 10 μM compound; 50 nM LTD4
T2 sequence (Q9Y271 1-337): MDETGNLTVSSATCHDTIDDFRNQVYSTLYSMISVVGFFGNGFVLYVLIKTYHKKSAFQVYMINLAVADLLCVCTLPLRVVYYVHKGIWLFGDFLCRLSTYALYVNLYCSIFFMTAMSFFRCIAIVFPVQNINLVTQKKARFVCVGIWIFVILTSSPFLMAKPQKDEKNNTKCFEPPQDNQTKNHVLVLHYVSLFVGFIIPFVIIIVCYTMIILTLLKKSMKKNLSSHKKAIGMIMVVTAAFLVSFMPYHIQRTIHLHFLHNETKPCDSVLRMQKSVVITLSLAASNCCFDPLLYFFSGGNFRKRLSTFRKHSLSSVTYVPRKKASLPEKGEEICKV

GPR17 = settings: cited from earlier work
FGFR1 = FGFR1 (Homo sapiens, UniProt P11362); assay: PathHunter U2OS FGFR1 functional counter assay; format: cell-based; settings: dose response
Chain of FGFR1 (P11362 22-822): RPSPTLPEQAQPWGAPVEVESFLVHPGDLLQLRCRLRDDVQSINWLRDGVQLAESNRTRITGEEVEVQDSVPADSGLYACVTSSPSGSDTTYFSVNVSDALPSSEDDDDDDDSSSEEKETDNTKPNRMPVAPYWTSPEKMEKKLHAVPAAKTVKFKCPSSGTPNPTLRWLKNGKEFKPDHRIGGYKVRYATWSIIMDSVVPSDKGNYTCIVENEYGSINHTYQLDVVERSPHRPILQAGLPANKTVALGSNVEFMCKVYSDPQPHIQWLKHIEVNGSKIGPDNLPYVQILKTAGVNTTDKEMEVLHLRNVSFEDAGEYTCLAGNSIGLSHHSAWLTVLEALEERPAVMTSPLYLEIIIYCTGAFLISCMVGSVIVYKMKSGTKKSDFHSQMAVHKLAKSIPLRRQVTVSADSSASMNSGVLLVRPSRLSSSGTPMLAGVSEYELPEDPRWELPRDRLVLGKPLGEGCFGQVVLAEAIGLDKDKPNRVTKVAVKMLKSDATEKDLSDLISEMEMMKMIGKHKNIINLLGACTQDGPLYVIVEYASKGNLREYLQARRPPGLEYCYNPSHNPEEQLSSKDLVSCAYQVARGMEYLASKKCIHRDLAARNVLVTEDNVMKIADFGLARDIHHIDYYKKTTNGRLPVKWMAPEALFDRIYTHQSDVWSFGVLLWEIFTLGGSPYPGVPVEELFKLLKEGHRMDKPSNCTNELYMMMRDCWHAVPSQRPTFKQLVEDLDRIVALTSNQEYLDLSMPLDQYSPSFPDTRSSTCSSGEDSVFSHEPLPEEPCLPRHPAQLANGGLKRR

GHSR1a = GHSR1a (Homo sapiens, UniProt Q92847); assay: PathHunter U2OS GHSR1a β-arrestin counter assay; format: cell-based; settings: dose response
Chain of GHSR1a (Q92847 whole entry): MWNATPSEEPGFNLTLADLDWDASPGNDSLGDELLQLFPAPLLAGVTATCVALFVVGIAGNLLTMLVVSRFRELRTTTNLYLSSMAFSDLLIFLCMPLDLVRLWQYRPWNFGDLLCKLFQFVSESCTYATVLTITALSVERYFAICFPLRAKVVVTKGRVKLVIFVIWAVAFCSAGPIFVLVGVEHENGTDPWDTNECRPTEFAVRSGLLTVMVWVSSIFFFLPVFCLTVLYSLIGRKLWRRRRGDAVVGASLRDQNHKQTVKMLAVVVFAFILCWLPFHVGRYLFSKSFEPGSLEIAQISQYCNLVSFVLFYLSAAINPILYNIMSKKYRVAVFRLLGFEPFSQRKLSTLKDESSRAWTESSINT

hGPR17 = hGPR17 (Homo sapiens, UniProt Q13304); assay: Cisbio HTRF β-arrestin recruitment assay, Schild analysis; format: cell-based; settings: Table 1
Chain of hGPR17 (Q13304 whole entry, canonical isoform): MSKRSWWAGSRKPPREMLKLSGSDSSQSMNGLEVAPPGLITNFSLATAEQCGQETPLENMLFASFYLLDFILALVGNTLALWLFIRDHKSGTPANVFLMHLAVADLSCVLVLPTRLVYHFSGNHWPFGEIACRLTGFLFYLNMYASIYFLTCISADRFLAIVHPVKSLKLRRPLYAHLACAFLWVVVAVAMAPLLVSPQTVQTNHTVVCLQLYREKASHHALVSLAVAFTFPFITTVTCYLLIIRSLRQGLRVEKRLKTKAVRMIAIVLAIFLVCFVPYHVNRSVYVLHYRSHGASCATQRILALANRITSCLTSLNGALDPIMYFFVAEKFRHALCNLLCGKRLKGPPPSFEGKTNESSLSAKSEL

GPR17 (long isoform) = GPR17 (long isoform) (Homo sapiens, UniProt Q13304); assay: PathHunter GPR17 β-arrestin recruitment assay; format: cell-based; settings: IC50 (antagonist mode), assay development; stimulated with 2 μM MDL (~EC80)
Chain of GPR17 (long isoform) (Q13304 whole entry, canonical isoform): as above

hCysLTR2 = target: T3, hCysLTR2 (Homo sapiens, UniProt Q9NS75); assay: Calcium mobilization, Neuro-2a cells transiently transfected with hCysLTR2; format: cell-based; settings: 10 μM compound; 50 nM LTD4
T3 sequence (Q9NS75 1-346): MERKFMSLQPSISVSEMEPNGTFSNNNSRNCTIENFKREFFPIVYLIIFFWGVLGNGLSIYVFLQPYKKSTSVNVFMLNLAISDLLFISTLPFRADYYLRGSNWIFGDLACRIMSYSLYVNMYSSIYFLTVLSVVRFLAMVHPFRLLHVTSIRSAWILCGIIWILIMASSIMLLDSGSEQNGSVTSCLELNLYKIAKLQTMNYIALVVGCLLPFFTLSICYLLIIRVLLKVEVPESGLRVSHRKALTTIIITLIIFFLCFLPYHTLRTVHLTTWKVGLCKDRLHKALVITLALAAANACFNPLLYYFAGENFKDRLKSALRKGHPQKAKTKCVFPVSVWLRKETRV

T1 sequence (Q13304 whole entry): as the sequence (Q13304 whole entry, canonical isoform) above

**Q.** For `O=C(O)CCc1c(C(=O)O)[nH]c2cc(Cl)cc(Cl)c12` [MDL, 3-(2-carboxyethyl)-4,6-dichloro-1H-indole-2-carboxylic acid], which EC50 (hGPR17L [1]) is on record?
**A.** The EC50 was 0.28 µM.

**Q.** What about the “forskolin-stimulated cAMP after GPR17 activation” value (hGPR17L [2]; forskolin plus MDL) of the same compound?
**A.** The value was 3.5 ± 0.18 nM.

**Q.** What about the “inhibition of forskolin stimulated cAMP” value (hGPR17L [2]; forskolin plus MDL) of the same compound?
**A.** The value was 29 ± 3%.

**Q.** What about the “forskolin and IBMX-stimulated GLP-1 secretion after GPR17 activation” value (hGPR17L [3]) of the same compound?
**A.** Its value is 50.1 ± 4.6 pM.

**Q.** What about the “reduction of forskolin and IBMX-stimulated GLP-1 secretion” value (hGPR17L [3]) of the same compound?
**A.** The value was 33 ± 8%.

**Q.** What about the Ki [4] of the same compound?
**A.** The Ki was 0.14 µM.

**Q.** What about the EC50 (hGPR17L [5]) of the same compound?
**A.** The EC50 was 0.0019 µM.

**Q.** Which “block of P2RY1 activation” value (hP2RY1) does the source give for `CNc1ncnc2c1ncn2[C@H]1C[C@H](OP(=O)(O)O)[C@@H](COP(=O)(O)O)O1` [MRS2179] here?
**A.** The value was “antagonized”.

**Q.** Which “activation of GPR17 or potentiation of MDL” value (hGPR17L [1]; calcium mobilization assay) does the source give for `CC(C)[C@@H](O)CC[C@@H](C)[C@H]1CC[C@H]2[C@@H]3CC=C4C[C@@H](O)CC[C@]4(C)[C@H]3CC[C@]12C` [24S-HC, 24(S)-hydroxycholesterol, reference compound] here?
**A.** Its value is “not able to confirm”.

**Q.** And the “activation of GPR17 or potentiation of MDL” value (hGPR17L [5]; cAMP accumulation assay)?
**A.** Its value is “not able to confirm”.

**Q.** Which “antagonist activity at GPR17” value (hGPR17L [1]; calcium mobilization assay) does the source give for `O=C(Nc1cccc2c(=O)cc(-c3nnn[nH]3)oc12)c1ccc(OCCCCc2ccccc2)cc1` [pranlukast] here?
**A.** The value was “full antagonist activity”.

**Q.** What about the “block of CYSLTR1 activation” value (hCysLTR1) of the same compound?
**A.** The value was “antagonized”.

**Q.** And the “block of MDL-stimulated receptor activation of GPR17” value (GPR17)?
**A.** The value was “completely”.

**Q.** What does the source list for `COc1ccc(C(=O)NC2CCCc3c2[nH]c2c(Cl)cccc32)cc1OC` (stereo not drawn) [Compd 1, N-(8-Chloro-2,3,4,9-tetrahydro-1H-carbazol-1-yl)-3,4-dimethoxybenzamide]?
**A.** Emax (hGPR17L [1]; 1321-N1, read-out: % Efficacy Avg ± SEM): 109 ± 3.38%; IC50 (hGPR17L [1]; Calcium Assay IC50(μM) Avg ± SEM, Table 2, reported only when efficacy ≥75%): 5.47 ± 0.3 µM; activity in FGFR1 functional counter assay (FGFR1): no activity; activity in GHSR1a β-arrestin counter assay (GHSR1a): no activity; β-arrestin Schild Slope (95% CI) (hGPR17): 1.13 (0.96 – 1.30); attenuation of MDL-mediated inhibition of forskolin-stimulated cAMP (hGPR17L [2]): significantly attenuated; attenuation of MDL-mediated inhibition of GLP-1 secretion (hGPR17L [3]): significantly attenuated

**Q.** With `O=C(O)c1ccc(OCCCc2ccc(OCCCCOC3CCCCC3)cc2)c(C(=O)NC2CCCC(C(=O)O)C2)c1` (stereo not drawn) [HAMI] as the compound, how does the IC50 (GPR17 (long isoform)) read?
**A.** The IC50 was 8.2 µM.

**Q.** What about the IC50 (hGPR17L [1]; IC50 (antagonist mode), assay development, stimulated with […] MDL (~EC80)) of the same compound?
**A.** Its IC50 is 8.1 µM.

**Q.** And the “antagonist activity at GPR17” value (hGPR17L [1]; calcium mobilization assay)?
**A.** The value was “full antagonist activity”.

**Q.** What about the “block of CYSLTR2 activation” value (hCysLTR2) of the same compound?
**A.** Its value is “antagonized”.

**Q.** And the “attenuation of MDL-mediated inhibition of forskolin-stimulated cAMP” value (hGPR17L [2])?
**A.** Its value is “significantly attenuated”.

**Q.** And the “attenuation of MDL-mediated inhibition of GLP-1 secretion” value (hGPR17L [3])?
**A.** Its value is “significantly attenuated”.

**Q.** What about the IC50 (GPR17) of the same compound?
**A.** Its IC50 is “single digit micromolar range”.

**Q.** What about the “block of MDL-stimulated receptor activation of GPR17” value (GPR17) of the same compound?
**A.** The value was “completely”.

**Q.** What about the IC50 (hGPR17L [5]; IC50 (antagonist mode), assay development, 30 nM MDL (EC80), 1 μM forskolin) of the same compound?
**A.** The IC50 was 1.5 µM.

**Q.** What about the IC50 (hGPR17L [5]; IC50, cAMP HTRF assay, purified re-purchased/re-synthesized compounds reassessed) of the same compound?
**A.** Its IC50 is 10 µM.
